{
  "source": "patent US20210230213A1",
  "about": "“ARAMCHOL SALTS” (GALMED RESEARCH AND DEVELOPMENT LTD., priority 2013, published 2021)",
  "assay": "Accelerated stability of Aramchol N-methylglucamine at 40° C./75% RH (Example 5)",
  "type": "physicochemical",
  "details": "for assay: calculated against free acid reference",
  "experimental": "The following parameters were determined at t=0, t=1 week, t=2 weeks: appearance, LC-purity, LC-assay (the assay is calculated against the reference which is the free acid and therefore, the results are less than 100%), water content. The appearance and purity remained unchanged under the investigated conditions. […] The calculated assay remained relatively unchanged under the investigational conditions. Water content increased under the investigational conditions and the material seemed hygroscopic. The attraction of water in the solid state form was more prominent for material stored in an open container.",
  "data": [
    {"substance": "3β-arachidylamido-7α,12α-dihydroxy-5β-cholan-24-oic acid N-methylglucamine salt", "values": [
      {"measurement": "purity", "setting": "40° C./75% RH, as a solution in a closed flask, T = 0", "result": 99.5, "unit": "%"},
      {"measurement": "purity", "setting": "40° C./75% RH, as a solution in a closed flask, T = 1 (week)", "result": 99.5, "unit": "%"},
      {"measurement": "purity", "setting": "40° C./75% RH, as a solution in a closed flask, T = 2 (weeks)", "result": 99.5, "unit": "%"},
      {"measurement": "water", "setting": "40° C./75% RH, solid in a closed container, T = 0", "result": 1.2, "unit": "%"},
      {"measurement": "water", "setting": "40° C./75% RH, solid in a closed container, T = 1 (week)", "result": 1.6, "unit": "%"},
      {"measurement": "water", "setting": "40° C./75% RH, solid in a closed container, T = 2 (weeks)", "result": 2.0, "unit": "%"},
      {"measurement": "water", "setting": "40° C./75% RH, solid in an open container, T = 0", "result": 1.2, "unit": "%"},
      {"measurement": "water", "setting": "40° C./75% RH, solid in an open container, T = 1 (week)", "result": 4.3, "unit": "%"},
      {"measurement": "water", "setting": "40° C./75% RH, solid in an open container, T = 2 (weeks)", "result": 5.7, "unit": "%"},
      {"measurement": "purity", "setting": "40° C./75% RH, solid state form in a closed container, T = 0", "result": 99.5, "unit": "%"},
      {"measurement": "purity", "setting": "40° C./75% RH, solid state form in a closed container, T = 1 (week)", "result": 99.4, "unit": "%"},
      {"measurement": "purity", "setting": "40° C./75% RH, solid state form in a closed container, T = 2 (weeks)", "result": 99.5, "unit": "%"},
      {"measurement": "purity", "setting": "40° C./75% RH, solid state form in an open container, T = 0", "result": 99.5, "unit": "%"},
      {"measurement": "purity", "setting": "40° C./75% RH, solid state form in an open container, T = 1 (week)", "result": 99.5, "unit": "%"},
      {"measurement": "purity", "setting": "40° C./75% RH, solid state form in an open container, T = 2 (weeks)", "result": 99.5, "unit": "%"},
      {"measurement": "purity on exposure to 40° C./75% RH", "setting": "40° C./75% RH, up to 2 weeks", "result": "no change to purity values"},
      {"measurement": "assay", "setting": "solid in a closed container, T = 0", "result": 74.7, "unit": "%"},
      {"measurement": "assay", "setting": "solid in a closed container, T = 1 (week)", "result": 72.8, "unit": "%"},
      {"measurement": "assay", "setting": "solid in a closed container, T = 2 (weeks)", "result": 74.4, "unit": "%"},
      {"measurement": "assay", "setting": "solid in an open container, T = 0", "result": 74.7, "unit": "%"},
      {"measurement": "assay", "setting": "solid in an open container, T = 1 (week)", "result": 76.7, "unit": "%"},
      {"measurement": "assay", "setting": "solid in an open container, T = 2 (weeks)", "result": 71.9, "unit": "%"},
      {"measurement": "assay", "setting": "solution in a closed flask, T = 0", "result": 74.7, "unit": "%"},
      {"measurement": "assay", "setting": "solution in a closed flask, T = 1 (week)", "result": 75.3, "unit": "%"},
      {"measurement": "assay", "setting": "solution in a closed flask, T = 2 (weeks)", "result": 74.8, "unit": "%"}
    ]}
  ]
}
